{
  "source": "patent US20200237742A1",
  "about": "“Serdexmethylphenidate Conjugates, Compositions And Methods Of Use Thereof” (priority 2018, published 2020)",
  "key": {"[1]": {"test_system": "healthy, nondependent, recreational stimulant users", "test": "Oral abuse potential study, VAS pharmacodynamic assessments"}, "[2]": {"test_system": "recreational stimulant abusers", "test": "Intravenous abuse potential study, VAS pharmacodynamic assessments", "type": "in vivo, human", "source_text": "“Drug liking” score, used herein, is the score used to assess the degree that a human participant likes a drug effect at the time the question is being asked (that is, at the moment). It is scored using a 0 to 100 point bipolar visual analogue scale (VAS) anchored in the center with a neutral anchor of “neither like nor dislike” (score of 50), on the left with “strong disliking” (score of 0) and on the right with “strong liking” (score of 100).\n“Euphoria” or “Feeling High” score, used herein, is the term to describe the score used to assess the degree that a human participant is high at the time the question is being asked (that is, at the moment). It is scored using a 0 to 100 point unipolar visual analogue scale (VAS) anchored on the left with “Not at All” (score of 0) and on the right with “Extremely” (score of 100).\n“Take Drug Again” score, used herein, is the term to describe the score used to assess the degree that a human participant wants to take the drug again, if given the opportunity, based on his/her opinion now, i.e., at the time the question is being asked. It is scored using a 0 to 100 point unipolar visual analogue scale (VAS) anchored on the left with “Definitely Would Not” (score of 0) and on the right with “Definitely Would” (score of 100).\n“Overall Drug Liking” score, used herein, is the term to describe the score used to assess the human subject's global perception of drug liking (i.e., the subjective effects over the whole course of the drug experience including any carryover effects). Subjects respond to the statement “Overall, my liking for this drug is.” The question is scored using a 0-100 point bipolar VAS anchored on the left with “Strong Disliking” (score of 0); “Neither Like nor Dislike” (score of 50) in the middle, and anchored on the right with “Strong Liking” (score of 100). This scale has the advantage of the human subject being relatively less affected or unaffected by acute study drug effects (if any) by the time of the assessment.\n“Good Effects” score, used herein, is the term to describe the score used to assess the degree that a human participant is feeling good drug effects at the time the question is being asked (that is, at the moment). Subjects respond to the statement “At this moment, I can feel good drug effects.” It is scored using a 0 to 100 point unipolar visual analogue scale (VAS) anchored on the left with “Not at All” (score of 0) and on the right with “Extremely” (score of 100).\nSafety assessments were performed throughout the study."}, "[3]": {"test_system": "recreational stimulant abusers", "test": "Intravenous study, treatment-emergent adverse events", "details": "d-methylphenidate treatment vs serdexmethylphenidate", "experimental": "(§1) A study was conducted in humans to assess the intravenous abuse potential of serdexmethylphenidate relative to unconjugated d-methylphenidate and placebo in recreational stimulant abusers. This was a Phase 1, randomized, double-blind study in which serdexmethylphenidate and d-methylphenidate were administered intravenously in recreational stimulant users with a history of non-oral abuse. In Part A of the study, subjects (Cohort 1) participated in a dose-escalation phase to determine the optimal dose of intravenous d-methylphenidate based on tolerability and abuse-related pharmacodynamic assessments. […] The doses of serdexmethylphenidate and d-methylphenidate are equivalent with respect to molar amount of d-methylphenidate. FDA-recommended abuse potential measures and blood samples were collected at different times after dosing. Safety assessments were performed throughout the study."}, "[4]": {"test": "Intranasal study (KP415.A02), plasma pharmacokinetics", "type": "in vivo, human", "details": "intranasal administration", "protocol": "On dosing days in the Treatment Phase, blood samples were collected for the measurement of the plasma concentrations of SDX, d-methylphenidate (d-MPH), 1-methylphenidate (1-MPH) and ritalinic acid at predose and at 0.25, 0.5, 0.75, 1, 1.5, 2, 3, 4, 5, 6, 7, 8, 9, 10, 12, 16, 24, 36, and 48 hours ±5 minutes after each dose of study drug. […] All VAS pharmacodynamic assessments except Take Drug Again and Overall Drug Liking were performed at 0.25, 0.5, 0.75, 1, 1.5, 2, 3, 4, 5, 6, 7, 8, 10, 12, 24 hours ±5 minutes postdose. In addition, predose assessments of Feeling High, and Drowsiness/Alertness were collected. The Take Drug Again and Overall Drug Liking VAS assessments were performed at 12 and 24 hours ±5 minutes postdose. Ease of Nasal Insufflation scores were completed within 5 minutes after the completion of each intranasal drug administration during the Treatment Phase."}, "[5]": {"test": "Intravenous pharmacokinetic study (KP415.A03) in recreational stimulant users", "details": "following intravenous administration", "experimental": "as §1"}, "[6]": {"details": "Focalin XR 80 mg, phentermine HCl 60 mg, bipolar VAS"}, "[7]": {"details": "Focalin XR 80 mg, phentermine HCl 60 mg, unipolar VAS"}, "[8]": {"details": "phentermine HCl 60 mg vs SDX Cl 120 mg"}, "[9]": {"details": "phentermine HCl 60 mg vs SDX Cl 240 mg"}, "[10]": {"details": "phentermine HCl 60 mg vs placebo"}},
  "note": "Where a name gives a salt, the structure may show the parent alone.",
  "data": [
    {"compound": "CC(C)(N)Cc1ccccc1", "note": "[phentermine hydrochloride, reference compound]", "values": [
      {"measurement": "Drug Liking Emax, Median", "setting": "[1]; [6]", "value": 84.0},
      {"measurement": "Feeling Alert/Drowsy Emax, Median", "setting": "[1]; [6]", "value": 84.0},
      {"measurement": "Overall Drug Liking Emax, Median", "setting": "[1]; [6]", "value": 77.0},
      {"measurement": "Take Drug Again Emax, Median", "setting": "[1]; [6]", "value": 75.0},
      {"measurement": "Any Effects Emax, Median", "setting": "[1]; [7]", "value": 74.0},
      {"measurement": "Bad Effects Emax, Median", "setting": "[1]; [7]", "value": 7.0},
      {"measurement": "Feeling High Emax, Median", "setting": "[1]; [7]", "value": 76.0},
      {"measurement": "Good Effects Emax, Median", "setting": "[1]; [7]", "value": 75.0},
      {"measurement": "Mean Difference Any Effects Emax, D vs A", "setting": "[1]; [8]", "value": 37.4},
      {"measurement": "Mean Difference Bad Effects Emax, D vs A", "setting": "[1]; [8]", "value": 11.9},
      {"measurement": "Mean Difference Feeling Alert/Drowsy Emax, D vs A", "setting": "[1]; [8]", "value": 15.7},
      {"measurement": "Mean Difference Feeling High Emax, D vs A", "setting": "[1]; [8]", "value": 36.0},
      {"measurement": "Mean Difference Good Effects Emax, D vs A", "setting": "[1]; [8]", "value": 35.5},
      {"measurement": "Mean Difference Overall Drug Liking Emax, D vs A", "setting": "[1]; [8]", "value": 14.9},
      {"measurement": "Mean Difference Take Drug Again Emax, D vs A", "setting": "[1]; [8]", "value": 14.9},
      {"measurement": "Mean Difference Drug Liking Emax, D vs A", "setting": "[1]; phentermine HCl 60 mg vs SDX Cl 120 mg, margin 10", "value": 15.5},
      {"measurement": "Mean Difference Any Effects Emax, D vs B", "setting": "[1]; [9]", "value": 28.0},
      {"measurement": "Mean Difference Bad Effects Emax, D vs B", "setting": "[1]; [9]", "value": 4.6},
      {"measurement": "Mean Difference Feeling Alert/Drowsy Emax, D vs B", "setting": "[1]; [9]", "value": 12.2},
      {"measurement": "Mean Difference Feeling High Emax, D vs B", "setting": "[1]; [9]", "value": 27.7},
      {"measurement": "Mean Difference Good Effects Emax, D vs B", "setting": "[1]; [9]", "value": 30.2},
      {"measurement": "Mean Difference Overall Drug Liking Emax, D vs B", "setting": "[1]; [9]", "value": 15.3},
      {"measurement": "Mean Difference Take Drug Again Emax, D vs B", "setting": "[1]; [9]", "value": 15.4},
      {"measurement": "Mean Difference Drug Liking Emax, D vs B", "setting": "[1]; phentermine HCl 60 mg vs SDX Cl 240 mg, margin 10", "value": 14.0},
      {"measurement": "Bad Effects Emax, median difference D vs E", "setting": "[1]; [10]", "value": 8.0, "unit": "c"},
      {"measurement": "Mean Difference Any Effects Emax, D vs E", "setting": "[1]; [10]", "value": 48.5},
      {"measurement": "Mean Difference Feeling Alert/Drowsy Emax, D vs E", "setting": "[1]; [10]", "value": 23.5},
      {"measurement": "Mean Difference Feeling High Emax, D vs E", "setting": "[1]; [10]", "value": 46.4},
      {"measurement": "Mean Difference Good Effects Emax, D vs E", "setting": "[1]; [10]", "value": 47.6},
      {"measurement": "Mean Difference Overall Drug Liking Emax, D vs E", "setting": "[1]; [10]", "value": 18.6},
      {"measurement": "Mean Difference Take Drug Again Emax, D vs E", "setting": "[1]; [10]", "value": 17.1},
      {"measurement": "Mean Difference Drug Liking Emax, D vs E", "setting": "[1]; phentermine HCl 60 mg vs placebo, margin 10, hydrochloride", "value": 22.3},
      {"measurement": "Mean Difference Drug Liking Emax, D vs E", "setting": "[1]; phentermine HCl 60 mg vs placebo, margin 10, listed as Phentermine, hydrochloride", "value": "statistically significantly higher"}
    ]},
    {"compound": "COC(=O)[C@H](c1ccccc1)[C@H]1CCCCN1", "note": "[d-methylphenidate, methyl (R)-2-phenyl-2-((R)-piperidin-2-yl)acetate, reference compound]", "values": [
      {"measurement": "Drug Liking Emax, statistical analysis vs. placebo", "setting": "[2]; d-MPH HCl 15 mg vs placebo (study validity)", "value": "significantly higher"},
      {"measurement": "Typical stimulant-related Adverse Events (euphoric mood, hypervigilance, increased heart rate)", "setting": "[3]", "value": "more common"}
    ]},
    {"compound": "COC(=O)[C@H](c1ccccc1)[C@H]1CCCCN1C(=O)OC[n+]1cccc(C(=O)N[C@@H](CO)C(=O)O)c1", "note": "[serdexmethylphenidate]", "values": [
      {"measurement": "Median Difference Drug Liking Emax, A vs C", "setting": "[2]; SDX Cl 30 mg vs placebo, bipolar VAS", "value": "not significantly different"},
      {"measurement": "Median Difference Drug Liking Emax, B vs A", "setting": "[2]; d-MPH HCl 15 mg vs SDX Cl 30 mg, bipolar VAS", "value": "significantly lower"},
      {"measurement": "effects on multiple abuse-related endpoints vs intravenous placebo", "setting": "[2]; subjects with a history of non-oral abuse of stimulants", "value": "statistically similar"},
      {"measurement": "conversion of SDX to the active d-methylphenidate when snorted", "setting": "[4]", "value": "not readily or effectively converted"},
      {"measurement": "conversion of serdexmethylphenidate to d-methylphenidate", "setting": "[5]", "value": "very little conversion"}
    ]}
  ]
}
